Measured values published in patent publication US5512588A, “Furylthiazoles and their use as H2 - receptor antagonists and antimicrobials” (Fujisawa Pharmaceutical Co., Ltd., priority 1991, dated 1996).

Key:
[1] = system: histamine-stimulated gastric secretion; test: Test B (Gastric secretion from lumen perfused stomach in anesthetized rats); type: in vivo, Male Sprague-Dawley rats; conditions: maximal inhibition of acid output, histamine 3 mg/kg/hr i.v., test compound 1 mg/kg intravenously
Description: Test B (Gastric secretion from lumen perfused stomach in anesthetized rats):
Male Sprague-Dawley rats weighing about 250 g were used. Rats were deprived of food but allowed free access to water for 24 hours. The animals were anesthetized with 1.25 g/kg urethane intraperitoneally. The abdomen was opened and the gastric lumen was perfured with saline throughout the experiment. The perfusate was titrated by an autotitrator with 25 mM sodium hydroxide as a titrant. Gastric secretion was stimulated by intravenous infusion with histamine (3 mg/kg/hr). After reaching plateau, test compound (1 mg/kg) was given intravenously. Drug effect was expressed as maximal inhibition by acid output.

[2] = system: Campylobacter pyloridis 8008; test: Test C (Anti-microbial activity), agar dilution method; type: cell-based; conditions: Helicobacter pylori, 72 h, Brucella agar plus 5% lysed horse blood, 37° C. for 3 days, 10% CO2, 10^4 cfu/ml
Description: Test C (Anti-microbial activity):
In vitro antimicrobial activity was determined by the agar dilution method. Test strain was precultured in Brucella broth Agar containing 5% horse serum at 37° C. for 3 days, and 10^4 cfu/ml were inoculated with a multipoint replicater onto Brucella agar plus 5% lysed horse blood plate containing serial 2-fold dilutions of each drug at 37° C. for 3 days. Incubation was carried out in an atmosphere of 10% CO2. MIC was read after incubation as the lowest drug concentration that inhibited macroscopic colonial growth.

HCl-aspirin ulcer = test: Test D (Inhibition of HCl-aspirin ulcer); type: in vivo, male Sprague-Dawley rats; conditions: length of ulcers vs control; test compound 32 mg/kg orally 30 minutes before aspirin 200 mg/kg in 0.2N HCl; rats
Description: Test D (Inhibition of HCl-aspirin ulcer):
Seven male Sprague-Dawley rats, aged 6 weeks and weighing about 200 g were used per group for the study on HCl-aspirin ulcer after the fast for 24 hours. Each of the test compounds (32 mg/kg) suspended in 0.1% methylcellulose solution was administered orally 30 minutes before aspirin administration. Aspirin, suspended in 0.1% methylcellulose solution containing 0.2N HCl, was administered orally at a dose of 200 mg/kg/10 ml. One hour later, the animals were sacrificed and their stomachs were removed. The stomach was then fixed with 2% formalin. The length of ulcers was measured for each animal, and percentage of inhibition was calculated by comparing the mean length of ulcers (mm) in the test animals with that in the control animals.

H2 -receptor = test: Test A (H2 -receptor antagonism in isolated guinea-pig atrium); conditions: inhibition of histamine (1×10^-6 g/ml)-induced increase in beating rate, test compound 1×10^-6 g/ml, 30 minutes, 30°C
Description: Test A (H2 -receptor antagonism in isolated guinea-pig atrium):
The atrial strip isolated from guinea-pig was suspended under an initial tension 0.3 to 0.6 g in an organ bath containing Tyrode solution at 30°C., aerated 95% O2 -5% CO2 gas. The beating rate and amplitude of contraction of the atrium were recorded by means of a transducer and a polygraph. Histamine (1×10^-6 g/ml) was added to the bathing fluid and the increase in beating rate after dosing was measured. Addition of test compounds (1×10^-6 g/ml) was made 30 minutes after washing out histamine. Inhibitory effect of test compound was calculated by comparing histamine-induced increases in beating rate before and 30 minutes after dosing with the test compounds.

## COCCNC(N)=Nc1nc(-c2ccc(CNC(C)=O)o2)cs1 [Test Compound (c), 4-(5-Acetylaminomethylfuran-2-yl)-2-(amino)-(2-methoxyethylamino)methyleneamino!thiazole]
[1]
  Inhibition (%): 69%

## CC(=O)NCc1ccc(-c2csc(N=C(N)NCCc3ccccn3)n2)o1 [Test Compound (d), 4-(5-Acetylaminomethylfuran-2-yl)-2-(amino)-2-(2-pyridyl)ethylamino!methyleneamino!thiazole]
[2]
  MIC: 0.78 µg/mL

## CCCCNC(N)=Nc1nc(-c2ccc(CNC(C)=O)o2)cs1 [Test Compound (a), 4-(5-Acetylaminomethylfuran-2-yl)-2-(amino)(n-butylamino)methyleneamino!thiazole]
HCl-aspirin ulcer
  Inhibition (%): 86.9%

## C=CCNC(N)=Nc1nc(-c2ccc(CNC(C)=O)o2)cs1 [Test Compound (e)]
[2]
  MIC: 0.78 µg/mL

## CCCCCCNC(N)=Nc1nc(-c2ccc(CNC(C)=O)o2)cs1 [Test Compound (b), 4-(5-Acetylaminomethylfuran-2-yl)-2-(amino)(n-hexylamino)methyleneamino!thiazole]
H2 -receptor
  H2 Antagonism (%): 78.5%
[2]
  MIC: 0.1 µg/mL
